Test results reported in article PMC11939889, “Efficient Incorporation of DOPA into Proteins Free from Competition with Endogenous Translation Termination Machinery” (Biomolecules, 2025).

Target: T1, DOPARS (Methanocaldococcus jannaschii, UniProt Q57834, D158A/D286A/E220K/F261S/H283P/H70A/I159A/L282P/L65E/M285R/N268D/P284L/Y119F)
T1 construct: gene tyrS
Assay: isothermal titration calorimetry
Format: binding

T1 sequence (Q57834 whole entry L65E/H70A/Y119F/D158A/I159A/E220K/F261S/N268D/L282P/H283P/P284L/M285R/D286A): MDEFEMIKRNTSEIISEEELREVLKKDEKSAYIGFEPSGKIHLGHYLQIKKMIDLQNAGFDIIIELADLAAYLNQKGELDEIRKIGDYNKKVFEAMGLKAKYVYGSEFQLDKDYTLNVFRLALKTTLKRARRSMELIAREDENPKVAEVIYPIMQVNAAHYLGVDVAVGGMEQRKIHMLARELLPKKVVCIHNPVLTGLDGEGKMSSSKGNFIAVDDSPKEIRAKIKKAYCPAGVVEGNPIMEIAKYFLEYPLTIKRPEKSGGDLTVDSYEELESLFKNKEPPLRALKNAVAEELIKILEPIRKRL

Compound `N[C@@H](Cc1ccc(O)c(O)c1)C(=O)O` [DOPA, 3,4-Dihydroxy-L-phenylalanine] has a Kd of 11.7 µM.
